Among the data in US9420813B2, “Sweetener” (AJINOMOTO CO., INC., priority 2007, dated 2016) are Bitterness, Body taste and Taste profile values, retold here.

This assay is described as follows: Quantitative sensory evaluation, improvement of body taste and bitterness of combined high-intensity sweeteners (Examples 2 and 4). More on the design: species or system human. The conditions noted are these: for Bitterness: control 0, <0 improved; for Bitterness / Body taste: n=12; for Body taste: control 0, >0 improved. How it is done:
The quantitative sensory evaluation test was performed as follows. As for a combination standard solution of each sweeteners, the following compounds were used. The following standard solutions have been adjusted so they each have almost the same degree of sweetness.
ii) APM (0.02 g/dl)+Ace-K (0.005 g/dl) [APM:Ace-K=8:2 as a ratio of degrees of sweetness]
iii) Sucralose (0.0058 g/dl)+Ace-K (0.0075 g/dl) [sucralose:Ace-K=7:3 as a ratio of degrees of sweetness]
iv) APM (0.0125 g/dl)+sucralose (0.0042 g/dl) [APM:sucralose=1:1 as a ratio of degrees of sweetness]
v) APM (0.0125 g/dl)+sucralose (0.0021 g/dl)+Ace-K (0.0063 g/dl) [APM:sucralose:Ace-K=2:1:1 as a ratio of degrees of sweetness]
To distilled water containing each of the sweeteners, γ-Glu-Cys-Gly (glutathione), γ-Glu-Val-Gly or γ-Glu-Abu-Gly was added and mixed at concentrations of 0.0001 to 1 g/dl, and then the degree of the improvement of the body taste and the improvement of the bitterness on the sweet taste was measured. The addition effect of the peptides on each of the high-intensity sweeteners was evaluated with reference to sucrose.
When a mixture is more acidic than the standard control solution, the pH of the mixture was adjusted with NaOH to achieve a range of pH±0.2 with respect to the pH of the standard solution before use.
The sensory evaluation for the improvement of the body taste was performed with n=12 on the basis of the following criteria: a control (obtained by adding distilled water only and without adding glutathione and/or the peptide) was defined as 0, and by using the control as a standard, the follow were defined: weak: −2 points; slightly weak: −1 point; slightly strong: 1 point, and strong: 2 points. A higher score than 0 means that the sample has a body taste-improving effect.
Alternatively, the sensory evaluation for the improvement of the bitterness was performed with n=12 on the basis of the following criteria: a control (obtained by adding distilled water only and without adding glutathione and/or the peptide) was defined as 0, and by using the control as a standard, the following were defined: weak: −2 points; slightly weak: −1 point; slightly strong: 1 point, and strong: 2 points. A lower score than 0 means that the sample improves the bitterness.
The quantitative sensory evaluation test was performed as follows. As for combination standard solution of each sweeteners, the following compound was used. The following standard solutions have been adjusted so they each have almost the same degree of sweetness.
To distilled water containing each sweetener mentioned above, γ-Glu-Val-Gly or cinacalcet was added and mixed at concentrations of 0.0001 to 1 g/dl, and then each degree of the improvement of the body taste and the improvement of the bitterness on the sweet taste was measured. The addition effect of the sample on each of the high intensity sweeteners was evaluated with reference to sucrose.
When a mixture is more acidic than the standard control solution, the pH of the sample was adjusted with NaOH to achieve a range of pH±0.2 with respect to the pH of the standard solution before use.
The sensory evaluation for the improvement of the body taste was performed with n=12 on the basis of the following criteria: a control (obtained with adding distilled water only and without adding the sample) was defined as 0, and by using the control as a standard, the following were defined: weak: −2 points; slightly weak: −1 point; slightly strong: 1 point, and strong: 2 points. A higher score than 0 means that the sample improves the body taste.
Alternatively, the sensory evaluation for the improvement of the bitterness was performed with n=12 on the basis of the following criteria: a control (obtained with adding distilled water only and without adding the sample) was defined as 0, and by using the control as a standard, the following were defined: weak: −2 points; slightly weak: −1 point; slightly strong: 1 point, and strong: 2 points. […]

[1] abbreviates: APM 0.0125 + sucralose 0.0021 + Ace-K 0.0063 g/dl (2:1:1), sample 0.05 g/dl.
[2] abbreviates: APM 0.0125 g/dl + sucralose 0.0042 g/dl (1:1), sample 0.05 g/dl.
The mark [3] stands for this setting: APM 0.02 g/dl + Ace-K 0.005 g/dl (8:2), sample 0.05 g/dl.
Setting [4] is: sucralose 0.0058 g/dl + Ace-K 0.0075 g/dl (7:3), sample 0.05 g/dl.
Setting [5] is: APM 0.0125 + sucralose 0.0021 + Ace-K 0.0063 g/dl (2:1:1), sample 0.001 g/dl.
[6] abbreviates: APM 0.0125 + sucralose 0.0021 + Ace-K 0.0063 g/dl (2:1:1), sample 0.01 g/dl.
Setting [7] is: APM 0.0125 g/dl + sucralose 0.0042 g/dl (1:1), sample 0.001 g/dl.
[8] abbreviates: APM 0.0125 g/dl + sucralose 0.0042 g/dl (1:1), sample 0.01 g/dl.
The mark [9] stands for this setting: APM 0.02 g/dl + Ace-K 0.005 g/dl (8:2), sample 0.001 g/dl.
[10] abbreviates: APM 0.02 g/dl + Ace-K 0.005 g/dl (8:2), sample 0.01 g/dl.
[11] abbreviates: sucralose 0.0058 g/dl + Ace-K 0.0075 g/dl (7:3), sample 0.001 g/dl.
The mark [12] stands for this setting: sucralose 0.0058 g/dl + Ace-K 0.0075 g/dl (7:3), sample 0.01 g/dl.

*1 amine or outer side, *2 acyl side, *3 side chain or, on linkers, in order; H or OH if unused. Where no end group is shown, it is not given here. [ ]: non-standard residue; d: D form. γGlu = O=C(O)[C@H](CCC(=O)[*:2])N[*:1]; Abu = CC[C@H](N)C(=O)O

Consider `N[C@@H](CCC(=O)N[C@@H](CS)C(=O)NCC(=O)O)C(=O)O` [γ-Glu-Cys-Gly, reference compound], for which the Bitterness is −0.3 points under setting [1], −0.3 points under setting [2], −0.3 points under setting [3] and −0.3 points under setting [4]. The Body taste amounted to 1.2 points under setting [1], 1.0 points under setting [2], 1.0 points under setting [3] and 1.0 points under setting [4]. The Taste profile result (APM:Ace-K = 8:2, sample 0.05 g/dl) is recorded as “Sweet taste is wholly enhanced”; the Taste profile result (APM:sucralose = 1:1, sample 0.05 g/dl) is listed as “Sweet taste is enhanced in middle taste”; the Taste profile entry (APM:sucralose:Ace-K = 2:1:1, sample 0.05 g/dl) is reported as “Sweet taste is wholly enhanced”; the Taste profile result (sucralose:Ace-K = 7:3, sample 0.05 g/dl) is recorded as “Sweet taste is enhanced in middle taste”.
For [γGlu]-[Abu]-Gly, the Bitterness by setting is: under setting [5], −0.4 points; under setting [6], −0.8 points; under setting [7], −0.1 points; under setting [8], −0.1 points; under setting [9], −0.3 points; under setting [10], −0.7 points. Besides, the Bitterness is recorded as −0.3 points under setting [11] and −0.7 points under setting [12]. Further, the Body taste by setting is: under setting [5], 0.6 points; under setting [6], 1.3 points; under setting [7], 0.6 points; under setting [8], 1.3 points; under setting [9], 0.6 points; under setting [10], 1.3 points. The Body taste worked out at 0.5 points under setting [11] and 1.1 points under setting [12]. For the same compound, the Taste profile entry runs as follows: (APM:sucralose = 1:1, sample 0.001 g/dl) “Harmony is present. Sweet taste is enhanced”; (APM:sucralose = 1:1, sample 0.01 g/dl) “Harmony is present. Sweet taste is enhanced”.
